Source: article PMC6322304, “Phytohormone treatment induces generation of cryptic peptides with antimicrobial activity in the Moss Physcomitrella patens” (BMC Plant Biology, 2019)
Ends that are not written are not given here.

Experiments:
[1] = tested on: OPR3 gene; assay: qRT-PCR of pathogenesis-related gene in treated protonema; format: cell-based, Physcomitrella patens; details: protonema incubated 1 h; MeJA 50 μM to 1 mM, SA 10 μM to 1 mM (Figure S8)
Protocol: Protonemata of the moss P. patens subsp. patens (“Gransden 2004”, Freiburg) were grown in 200 mL liquid Knop medium with 500 mg/L ammonium tartrate under white light with a photon flux of 61 μmol/m^2•s under a 16-h photoperiod at 24°C. For mass spectrometry analysis, five-d-old protonema tissue was treated with 0.4 mM MeJA and incubated for 1 h. […] To analyze antimicrobial activity of secretome five-d-old- protonema tissue was treated with different concentration of MeJA. Treatment with cocktail of protease inhibitors was performed according to the dilution 1:200, as recommended by the manufacturer (P1860 Sigma Aldrich, USA). At least three independent biological replicates were used for each type of analysis. To test the gene expression induced by the peptides, five-d-old protonema tissue was treated with either mock solution or 1 μM peptide solution and harvested after 2, 4, 8 and 24 h later. […]
Total RNA from protonemata was isolated as previously described. Quality and quantity were evaluated using electrophoresis on agarose gel with ethidium bromide staining. Total RNA concentration of samples was precisely measured using the Quant-iT™ RNA Assay Kit, 5–100 ng on a Qubit 3.0 (Invitrogen, US) fluorometer. cDNA was synthesized using the MMLV RT kit (Evrogen, Russia) according to the manufacturer’s recommendations. […]

[2] = tested on: E. coli K-12 MG 1655; format: cell-based, Escherichia coli; details: K-12, 20 h
Protocol: (§1) A serial dilution method in sterile 96 Well Collection Plates (Corning 3870) in liquid MHB medium was used to define the minimum inhibitory concentration (MIC) of the peptides against E. coli K-12 MG 1655 and B. subtilis 168 HT as previously described. Diluted peptide (50 μL) in MHB medium was added to each well at the appropriate concentration (128 to 0.25 μg/mL), along with 50 μL of bacterial suspension at a concentration of 10^6 CFU/mL of microbial cells. The experiment was carried out in three replicates. Liquid MHB medium without the addition of the peptide used as a negative control. The plates were incubated at 37°С for 20 h without mixing. The MIC of the peptides was assessed visually and by measuring the spectrophotometric absorbance at 570 nm to identify the concentration that inhibited the visible growth of bacteria.

[3] = tested on: B. subtilis 168 HT; format: cell-based, Bacillus subtilis; details: 20 h
Protocol: as §1

[4] = tested on: E. coli and B. subtilis bacteria; format: cell-based, Escherichia coli; Bacillus subtilis
Protocol: as §1

Row | Compound | response of OPR3 transcription to hormone treatment (qRT-PCR) [1] | % inhibition, E. coli [2] | MIC, E. coli [2] | % inhibition, B. subtilis [3] | MIC, B. subtilis [3] | concentration at which bacterial growth was inhibited ([4]; on day 1 after inoculation, bacterium not named) | minimum inhibitory concentration (MIC) ([4]; bacterium not given, serial dilution with E. coli and B. subtilis)
1 | CC/C=C\CC1C(=O)CCC1CC(=O)OC (centres unmarked) [MeJA, methyl jasmonate] | clear response | – | – | – | – | – | –
2 | INIINAPLQGFKIA [INIINAPLQGFKIA] | – | >90% | 16 µg/mL | >90% | 32 µg/mL | – | –
3 | KIKVAINGFGRIG [synthetic copy of a cellular moss peptide, fragment of glyceraldehyde-3-phosphate dehydrogenase (GAPDH)] | – | – | – | – | – | 128 µg/mL | –
4 | LVQIGTKIVGVGRNYAAH [LVQIGTKIVGVGRNYAAH] | – | >90% | 64 µg/mL | >90% | 64 µg/mL | – | 64 µg/mL
